Test results taken from patent publication US8633204B2 (Pfizer Inc., priority 2006, dated 2014).

Test system: PI3-K in BT20 cells (phosphorylation of AKT at serine 473)
Assay: PI3-Kα Cellular Assay (AKT Ser473 phosphorylation ELISA in BT20 cells)
Type: cell-based, human
Conditions: Homo sapiens, BT-20, pAKT Ser473 ELISA, 1 hour incubation
Protocol: Compounds of the present invention were evaluated for potency against PI3-K using a cellular assay as follows.
Healthy growing human breast cancer cells BT20 (PI3K mutated) are used for the assay. BT20 cells are grown in 10% FBS+GLN (1:100)+PS (1:100)+1 mM Sodium Pyruvate+0.1 mM Sodium Bicarbonate+Non-Essential Amino Acids Solution (1:100) MEM medium (MEM+all). […] The cells are re-suspended in 10% FBS MEM all and are centrifuged down at 1400 rpm for 5 minutes. The cells are re-suspended in 0.5% FBS MEM all and are counted on a cell counter. The cells are seeded at 25,000 cells/well in volume of 100 μL/well in 0.5% FBS MEM all in a 96 well flat-bottom plate. The negative control wells receive only 100 μL of 0.5% FBS MEM all medium without cells. The plate is incubated overnight in a cell culture incubator with 5% CO2 at 37° C.
On day 2, testing compounds are prepared in 0.5% FBS MEM all medium and serially diluted at 1:3 for 11 test concentrations. Each concentration of the compounds is tested in duplicate. The compound solutions are added at 25 μL/well to the corresponded wells in cell plate, and 25 μL/well of the vehicle (0.5% DMSO in 0.5% FBS MEM all) is added to the negative control wells (no cells) and the positive control wells (cells without compounds). The plate is incubated for 1 hour in a cell culture incubator with 5% CO2 at 37° C. After 1 hour of incubation, the medium is removed, 100 μL/well of cell lysis buffer is added into the cell plate, and shake for 15 minutes at room temperature. […] After 1 hour, empty the contents of the wells, wash the plate 4 times with the wash buffer, and add 100 μL of TMB substrate solution (catalog #T0440, Sigma) into each well, and incubate with gentle shaking at room temperature for […]. After 15 minutes of color development, add 100 μL of stop solution (1N hydrochloric acid) to each well, and read the plate at 450 nm on ELISA plate reader.

Compound | IC50 [nM]
CCNc1nc(C)c2cc(CCC(=O)Nc3ccccn3)c(=O)n(C3CCCC3)c2n1 [Compound 122, 3-[8-cyclopenlyl-2-(ethylamino)-4-methyl-7-oxo-7,8-dihydropyrido[2,3-d]pyrimidin-6-yl]-N-pyridin-2-ylpropanamide] | 10000
Cc1nc(N)nc2c1cc(-c1cccnc1N)c(=O)n2C1CCCC1 [Compound 125, 2-amino-6-(2-aminopyridin-3-yl)-8-cyclopentyl-4-methylpyrido[2,3-d]pyrimidin-7(8H)-one] | 9010
CCOC(=O)c1cccc(-c2cc3c(C)nc(NC)nc3n(C3CCCC3)c2=O)c1 [Compound 141, ethyl 3-[8-cyclopentyl-4-methyl-2-(methylamino)-7-oxo-7,8-dihydropyrido[2,3-d]pyrimidin-6-yl]benzoate] | 10000
CCNc1nc(C)c2cc(-c3cccc(O)c3)c(=O)n(C3CCCC3)c2n1 [Compound 144, 8-cyclopentyl-2-(ethylamino)-6-(3-hydroxyphenyl)-4-methylpyrido[2,3-d]pyrimidin-7(8H)-one] | 3.05
Cc1nc(N)nc2c1cc(Br)c(=O)n2[C@H]1CC[C@H](O)CC1 [Compound 157, 2-amino-6-bromo-8-(trans-4-hydroxycyclohexyl)-4-methylpyrido[2,3-d]pyrimidin-7(8H)-one] | 305
Cc1nc(N)nc2c1cc(Br)c(=O)n2[C@@H]1CC[C@H](O)C1 [Compound 160, 2-amino-6-bromo-8-[(1R,3S)-3-hydroxycyclopentyl]-4-methylpyrido[2,3-d]pyrimidin-7(8H)-one] | 1040
Cc1nc(N)nc2c1cc(-c1cnn(C)c1)c(=O)n2[C@@H]1CC[C@H](O)C1 [Compound 161, 2-amino-8-[(1R,3S)-3-hydroxycyclopentyl]-4-methyl-6-(1-methyl-1H-pyrazol-4-yl)pyrido[2,3-d]pyrimidin-7(8H)-one] | 934
Cc1nc(N)nc2c1cc(-c1cn[nH]c1)c(=O)n2[C@@H]1CC[C@H](O)C1 [Compound 162, 2-amino-8-[(1R,3S)-3-hydroxycyclopentyl]-4-methyl-6-(1H-pyrazol-4-yl)pyrido[2,3-d]pyrimidin-7(8H)-one] | 47.2
Cc1nc(N)nc2c1cc(-c1cn[nH]c1)c(=O)n2[C@@H]1CC[C@@H](O)C1 [Compound 166, 2-amino-8-[(1R,3R)-3-hydroxycyclopentyl]-4-methyl-6-(1H-pyrazol-4-yl)pyrido[2,3-d]pyrimidin-7(8H)-one] | 262
Cc1nc(N)nc2c1cc(Br)c(=O)n2CC(C)(C)O [Compound 167, 2-amino-6-bromo-8-(2-hydroxy-2-methylpropyl)-4-methylpyrido[2,3-d]pyrimidin-7(8H)-one] | 2360

Now from value to compound:

IC50 [nM] | Compound
3.49 | Cc1nc(N)nc2c1cc(-c1cn[nH]c1)c(=O)n2C1CCCC1 [Compound 101, 2-amino-8-cyclopentyl-6-(1H-pyrazol-4-yl)-4-methylpyrido[2,3-d]pyrimidin-7(8H)-one]
8370 | CCNc1nc(C)c2cc(CCC(N)=O)c(=O)n(C3CCCC3)c2n1 [Compound 118, 3-[8-cyclopentyl-2-(ethylamino)-4-methyl-7-oxo-7,8-dihydropyrido[2,3-d]pyrimidin-6-yl]propanamide]
26.3 | CCNc1nc(C)c2cc(-c3ccc(O)c(OC)c3)c(=O)n(C3CCCC3)c2n1 [Compound 136, 8-cyclopentyl-2-(ethylamino)-6-(4-hydroxy-3-methoxyphenyl)-4-methylpyrido[2,3-d]pyrimidin-7(8H)-one]
17 | CCNc1nc(C)c2cc(-c3ccc(OC)nc3)c(=O)n(C3CCCC3)c2n1 [Compound 139, 8-cyclopentyl-2-(ethylamino)-6-(6-methoxypyridin-3-yl)-4-methylpyrido[2,3-d]pyrimidin-7(8H)-one]
0.793 | CNc1nc(C)c2cc(-c3ccc(OC)nc3)c(=O)n(C3CCCC3)c2n1 [Compound 140]
1300 | Cc1nc(N)nc2c1cc(-c1cnn(C)c1)c(=O)n2[C@@H]1CC[C@@H](O)C1 [Compound 164, 2-amino-8-[(1R,3R)-3-hydroxycyclopentyl]-4-methyl-6-(1-methyl-1H-pyrazol-4-yl)pyrido[2,3-d]pyrimidin-7(8H)-one]
